The target of data set [1] is T1, Cannabinoid receptor 2 (Homo sapiens, UniProt P34972). Description: Antagonist activity at human CB2 receptor expressed in CHO cells assessed as inhibition of CP55940-induced Ca2+ flux preincubated for 10 mins followed by agonist addition by Fluor-4 AM dye based assay. Type of data set: functional, cell-based. (A change in cytosolic calcium serves as a functional read-out for many receptors and channels.)

Data set [2] addresses T1, Cannabinoid receptor 2. Put plainly: Agonist activity at human CB2 receptor expressed in CHO cells assessed as induction of Ca2+ flux after 10 mins by Fluor-4 AM dye based assay. Format: functional, cell-based.
In data set [3] the target is T1, Cannabinoid receptor 2. Description: Agonist activity at human CB2 receptor expressed in CHO cells assessed as induction of Ca2+ flux after 10 mins by Fluor-4 AM dye based assay relative to CP55940. Type of data set: functional, cell-based.
Data set [4] concerns the target T1, Cannabinoid receptor 2. Description: Antagonist activity at human CB2 receptor expressed in CHO cells assessed as inhibition of CP55940-induced Ca2+ flux at 10 uM preincubated for 10 mins followed by agonist addition by Fluor-4 AM dye based assay. Type of data set: functional, cell-based.
The target of data set [5] is T2, Cannabinoid receptor 1 (CB1) (Homo sapiens, UniProt P21554). Put plainly: Agonist activity at human CB1 receptor expressed in CHO cells assessed as induction of Ca2+ flux after 10 mins by Fluor-4 AM dye based assay relative to CP55940. Type of data set: cell-based. The settings on record: CHO cells expressing human CB1 receptor.
For data set [6], the target named is T2, Cannabinoid receptor 1 (CB1). Put plainly: Antagonist activity at human CB1 receptor expressed in CHO cells assessed as inhibition of CP55940-induced Ca2+ flux at 10 uM preincubated for 10 mins followed by agonist addition by Fluor-4 AM dye based assay. Type of data set: cell-based. The settings on record: CHO cells expressing human CB1 receptor.
Data set [7] addresses T3, Cannabinoid receptor 1 (Homo sapiens, UniProt P21554). Put plainly: Agonist activity at human CB1 receptor expressed in CHO cells assessed as induction of Ca2+ flux after 10 mins by Fluor-4 AM dye based assay. Format: cell-based.
Data set [8] concerns the target T1, Cannabinoid receptor 2. Description: Agonist activity at human N-terminal HA-tagged CB2 receptor expressed in mouse AtT20 cells by FLIPR membrane potential assay. Format: cell-based.
Data set [9] concerns the target Cannabinoid receptor 1 (Rattus norvegicus, UniProt P20272). Description: Agonist activity at rat CB1 receptor expressed in mouse AtT20 cells by FLIPR membrane potential assay. Type of data set: cell-based.
Data set [10] deals with T1, Cannabinoid receptor 2. Description: Agonist activity at human CB2 receptor expressed in CHO cells assessed as induction of Ca2+ flux at 10 uM after 10 mins by Fluor-4 AM dye based assay. Type of data set: functional, cell-based.
In data set [11] the target is T3, Cannabinoid receptor 1. Put plainly: Agonist activity at human CB1 receptor expressed in CHO cells assessed as induction of Ca2+ flux at 10 uM after 10 mins by Fluor-4 AM dye based assay. Format: cell-based.
Data set [12] has as its system Mus musculus. Description: AUMC (0 to t) in C57 mouse at 10 mg/kg, ip measured up to 2 hrs by LC-MS/MS analysis. Format: ADME, organism-based. The settings on record: in vivo.
Data set [13] has as its system Mus musculus. Description: In vivo partial agonist activity at CB2 receptor in EAE C57BL/6 mouse model assessed as reduction in extensive demyelination in white matter at 10 to 30 mg/kg, ip administered from day 3 after immunization with MOG until day 19 by Luxol fast blue staining based assay. Type of data set: functional, organism-based.
A short description of data set [14]: Tmax in C57 mouse at 10 mg/kg, ip measured up to 2 hrs by LC-MS/MS analysis. Type of data set: ADME, organism-based. The settings on record: in vivo.
Data set [15] is described as follows: Half life in C57 mouse at 10 mg/kg, ip measured up to 2 hrs by LC-MS/MS analysis. The settings on record: in vivo. Type of data set: ADME, organism-based.
Data set [16] can be described thus: MRT in C57 mouse at 10 mg/kg, ip measured up to 2 hrs by LC-MS/MS analysis. The settings on record: in vivo. Type of data set: ADME, organism-based.
Data set [17] has as its system Mus musculus. Description: In vivo partial agonist activity at CB2 receptor in EAE C57BL/6 mouse model assessed as reduction in clinical signs at 10 to 30 mg/kg, ip administered from day 3 after immunization with MOG until day 27. Type of data set: functional, organism-based.
Data set [18] in a line: AUC (0 to t) in C57 mouse at 10 mg/kg, ip measured up to 2 hrs by LC-MS/MS analysis. Type of data set: ADME, organism-based. Details: dose 10 mg/kg, time < 2 hr, route intraperitoneal. The settings on record: in vivo.
Data set [19] relates to Mus musculus. Put plainly: AUMC (0 to infinity) in C57 mouse at 10 mg/kg, ip measured up to 2 hrs by LC-MS/MS analysis. The settings on record: in vivo. Format: ADME, organism-based.
Data set [20] can be described thus: Cmax in C57 mouse at 10 mg/kg, ip measured up to 2 hrs by LC-MS/MS analysis. Format: ADME, organism-based. Also on record: dose 10 mg/kg, route intraperitoneal. The settings on record: in vivo.
The target in data set [21] is T1, Cannabinoid receptor 2. Description: Agonist activity at human CB2 receptor expressed in CHO cells assessed as inhibition of forskolin-induced cAMP accumulation preincubated for 20 mins followed by forskolin addition measured after 30 mins by HTRF assay. Type of data set: functional, cell-based. For orientation: Changes in cAMP serve as a functional read-out for many G protein-coupled receptors.

A short description of data set [22]: AUC (0 to infinity) in C57 mouse at 10 mg/kg, ip measured up to 2 hrs by LC-MS/MS analysis. Details: dose 10 mg/kg, time infinity, route intraperitoneal. Format: ADME, organism-based. The settings on record: in vivo.
Data set [23] is described as follows: Elimination rate constant in C57 mouse at 10 mg/kg, ip measured up to 2 hrs by LC-MS/MS analysis. Type of data set: ADME, organism-based. The settings on record: in vivo.
For data set [24], the system named is Mus musculus. Description: In vivo partial agonist activity at CB2 receptor in EAE C57BL/6 mouse model assessed as reduction in leukocyte infiltration in white matter region at 10 to 30 mg/kg, ip administered from day 3 after immunization with MOG until day 19 by H and E staining based assay. Type of data set: functional, organism-based.
Data set [25] can be described thus: Ratio of Cmax in C57 mouse at 10 mg/kg, ip to EC50 for human CB2 receptor expressed in CHO cells assessed as induction of Ca2+ flux.

The IC50 is the concentration at which inhibition is half-maximal. Broadly, the EC50 is the concentration at which the effect is half-maximal. As a reminder, the Emax is the size of the effect at its maximum, as opposed to the concentration needed. For orientation: inhibition means the percentage by which the read-out fell short of the control. The term Tmax denotes the time at which the peak concentration occurs. The half-life is the time needed for the level to fall by half in the phase considered. As a reminder, the MRT is the average time that molecules of a dose stay in the body. A word on the AUC(0-t): it is the area under the concentration-time curve up to a stated or last time point. In general, Cmax refers to the highest concentration seen after dosing. Usually AUC(0-inf) stands for the area under the concentration-time curve extrapolated to infinity.

The source made the active and inactive calls.

Cannabinoid receptor 1 (Rattus norvegicus, UniProt P20272), sequence (P20272 whole entry): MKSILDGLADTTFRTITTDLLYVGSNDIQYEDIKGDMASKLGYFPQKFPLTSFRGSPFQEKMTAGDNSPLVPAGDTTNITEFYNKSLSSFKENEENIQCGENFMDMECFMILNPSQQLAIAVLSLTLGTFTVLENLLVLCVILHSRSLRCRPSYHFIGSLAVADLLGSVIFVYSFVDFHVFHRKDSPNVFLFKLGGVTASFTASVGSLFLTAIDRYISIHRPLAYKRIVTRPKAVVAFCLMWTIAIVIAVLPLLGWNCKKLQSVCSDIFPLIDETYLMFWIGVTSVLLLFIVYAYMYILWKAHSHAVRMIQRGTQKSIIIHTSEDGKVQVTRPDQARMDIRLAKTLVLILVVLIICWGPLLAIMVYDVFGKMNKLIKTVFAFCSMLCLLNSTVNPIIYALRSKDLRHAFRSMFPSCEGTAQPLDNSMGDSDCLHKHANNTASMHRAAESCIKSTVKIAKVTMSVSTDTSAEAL
T2 sequence (P21554 whole entry): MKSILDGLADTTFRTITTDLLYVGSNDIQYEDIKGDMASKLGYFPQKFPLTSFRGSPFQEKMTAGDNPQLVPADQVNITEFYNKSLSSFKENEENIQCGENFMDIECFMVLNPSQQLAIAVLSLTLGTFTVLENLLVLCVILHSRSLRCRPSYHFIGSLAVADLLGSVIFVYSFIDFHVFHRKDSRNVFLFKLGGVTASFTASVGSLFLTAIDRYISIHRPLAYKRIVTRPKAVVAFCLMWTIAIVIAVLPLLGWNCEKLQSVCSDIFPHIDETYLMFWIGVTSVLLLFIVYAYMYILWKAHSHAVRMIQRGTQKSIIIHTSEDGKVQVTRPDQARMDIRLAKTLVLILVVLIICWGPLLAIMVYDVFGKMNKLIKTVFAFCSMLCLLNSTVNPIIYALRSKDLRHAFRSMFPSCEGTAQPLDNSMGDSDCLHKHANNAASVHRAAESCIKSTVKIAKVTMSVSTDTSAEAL
T3 sequence (P21554 whole entry): as above
T1 sequence (P34972 whole entry): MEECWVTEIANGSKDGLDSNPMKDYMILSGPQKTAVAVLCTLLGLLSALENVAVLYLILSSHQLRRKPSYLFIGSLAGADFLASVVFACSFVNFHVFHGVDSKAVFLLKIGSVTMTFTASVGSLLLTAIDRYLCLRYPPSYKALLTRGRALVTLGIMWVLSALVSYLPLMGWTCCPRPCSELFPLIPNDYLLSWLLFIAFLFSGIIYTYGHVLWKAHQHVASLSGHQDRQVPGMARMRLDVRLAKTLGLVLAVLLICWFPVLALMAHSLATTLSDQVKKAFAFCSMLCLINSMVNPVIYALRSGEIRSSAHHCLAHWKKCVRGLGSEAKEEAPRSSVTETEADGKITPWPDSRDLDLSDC

Consider `O=C(NC12CC3CC(CC(C3)C1)C2)c1cn(CCN2CCOCC2)c2ccccc12`, for which, in data set [1], the IC50 was more than 100000 nM. Moreover, the EC50 in [2] was 59 nM; in [7] it was 3300 nM. Moreover, in data set [3], the Emax is 56.7%. For the same compound, the inhibition in [4] was less than 50%. The Emax at 10 min in [5] worked out at 75%. In data set [6], the inhibition at 10 min, 10 µM is less than 50%.

As for `CCCCCn1cc(C(=O)NC23CC4CC(CC(C4)C2)C3)c2ccccc21`, the half-maximal effective concentration (EC50) in [2] came out at 59 nM; in data set [8], 29 nM; in [7], 39 nM; in data set [9] it was 34 nM. Besides, in data set [3], the Emax came to 66.3%. In addition, the inhibition in data set [4] is less than 50%. Moreover, the Emax at 10 min in [5] was 68.3%. Also, the inhibition at 10 min, 10 µM in data set [6] was less than 50%.

For `CCCCCn1cc(C(=O)C23CC4CC(CC(C4)C2)C3)c2ccccc21`, the EC50 lay within 29 to 89 nM in data set [8] and 35 to 40 nM in data set [9].

`Cc1cccc2c(C(=O)NC34CC5CC(CC(C5)C3)C4)cn(CCN3CCOCC3)c12`: the Activity in data set [10] is less than 50%. Besides, the Emax result in data set [3] was “inactive”. Further, the inhibition in data set [4] is less than 50%. In [5], the Emax at 10 min amounted to 63.3%. Also, the inhibition at 10 min, 10 µM in [6] is less than 50%. For the same compound, the EC50 in data set [7] was 6700 nM.

As to `CSc1cccc2c(C(=O)NC34CC5CC(CC(C5)C3)C4)cn(CCN3CCOCC3)c12`, the Activity in [10] and in data set [11] was less than 50% throughout. In addition, the IC50 in data set [1] worked out at 28 nM. Also, in data set [2], the EC50 was more than 100000 nM. The inhibition at 10 min, 10 µM in data set [6] is less than 50%.

Take `COc1cccc2c(C(=O)NC34CC5CC(CC(C5)C3)C4)cn(CCN3CCOCC3)c12`: the Activity in [10] and in data set [11] was less than 50% in each case. Further, in [1], the IC50 is 16 nM. In addition, the EC50 in data set [2] was more than 100000 nM. For the same compound, in [6], the inhibition at 10 min, 10 µM is less than 50%.

In [12], `O=C(NC12CC3CC(CC(C3)C1)C2)c1cc2ccccc2n1CCCCO` displayed an AUMCt of 248 hr.hr.ng/ml. The outcome in data set [13], in [17] and in data set [24] was Active. The Tmax in [14] was 0.25 h. In addition, in data set [15], the half-life was 1.04 h. Besides, the MRT in data set [16] stood at 1.51 h. The AUC(0-t) at 2 h in data set [18] came to 317 ng·h/mL. This compound showed an AUMC in data set [19] of 637 hr.hr.ng/ml. The Activity in data set [11] was less than 50%. Further, the Cmax in data set [20] came out at 350 ng/mL. Further, the values for the EC50 in data set [2] and in data set [21] were 120 nM and 142 nM, respectively. Also, the AUC(0-inf) in data set [22] was 428 ng·h/mL. Further, the Emax in data set [3] stood at 85%. In [23], this compound had a k el at 2 h of 0.000189 s⁻¹. In addition, the inhibition in [4] was less than 50%. The Ratio in [25] was 8. Moreover, the inhibition at 10 min, 10 µM in [6] is less than 50%.

As for `CCCCCn1cc(C(=O)CC23CC4CC(CC(C4)C2)C3)c2ccccc21`, the values for the EC50 in data set [8] and in [9] were 29 to 89 nM and 35 to 40 nM, respectively.

As to `N#CCCCn1cc(C(=O)NC23CC4CC(CC(C4)C2)C3)c2ccccc21`, the EC50 in data set [2] is 31 nM; in data set [7] it was 630 nM. Also, the Emax in [3] amounted to 70%. The inhibition in data set [4] is less than 50%. Moreover, the Emax at 10 min in data set [5] came to 105%. Further, the inhibition at 10 min, 10 µM in [6] is less than 50%.

Turning to `O=C(NC12CC3CC(CC(C3)C1)C2)c1cn(CCCCO)c2ccccc12`, the figures for the EC50 in data set [2] and in data set [7] were 160 nM and 13000 nM, respectively. Also, the Emax in data set [3] came to 68.3%. Further, the inhibition in data set [4] is less than 50%. In data set [5], the Emax at 10 min was 58.3%. In addition, the inhibition at 10 min, 10 µM in data set [6] was less than 50%.
